According to ChEMBL document CHEMBL5303768, “Data for DCP probe TP-060” (2023):
Calls of active or inactive are those of the source. The calls are words filed in the database; no cut-off is given here.

Assays:
[1] = target: T1, Ceramide glucosyltransferase (Homo sapiens, UniProt Q16739); experiment: Cellular GlcCer reduction; type: functional, tissue-based, fibroblast
T1 sequence (Q16739 whole entry): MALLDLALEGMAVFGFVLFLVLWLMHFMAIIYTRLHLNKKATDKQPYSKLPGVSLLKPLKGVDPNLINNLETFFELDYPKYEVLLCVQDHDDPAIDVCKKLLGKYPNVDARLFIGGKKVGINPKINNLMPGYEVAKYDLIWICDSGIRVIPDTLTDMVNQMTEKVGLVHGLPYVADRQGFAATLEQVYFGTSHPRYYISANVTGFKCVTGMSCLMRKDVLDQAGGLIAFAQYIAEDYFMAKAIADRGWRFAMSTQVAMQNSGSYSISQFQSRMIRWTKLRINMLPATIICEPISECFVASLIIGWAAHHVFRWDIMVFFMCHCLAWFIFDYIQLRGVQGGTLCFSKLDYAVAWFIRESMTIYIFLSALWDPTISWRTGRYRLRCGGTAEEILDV

[2] = target: Cholecystokinin receptor type A (Homo sapiens, UniProt P32238); experiment: (§1) Safety47 Scan (DiscoverX - Eurofins)
Sequence of Cholecystokinin receptor type A (P32238 whole entry): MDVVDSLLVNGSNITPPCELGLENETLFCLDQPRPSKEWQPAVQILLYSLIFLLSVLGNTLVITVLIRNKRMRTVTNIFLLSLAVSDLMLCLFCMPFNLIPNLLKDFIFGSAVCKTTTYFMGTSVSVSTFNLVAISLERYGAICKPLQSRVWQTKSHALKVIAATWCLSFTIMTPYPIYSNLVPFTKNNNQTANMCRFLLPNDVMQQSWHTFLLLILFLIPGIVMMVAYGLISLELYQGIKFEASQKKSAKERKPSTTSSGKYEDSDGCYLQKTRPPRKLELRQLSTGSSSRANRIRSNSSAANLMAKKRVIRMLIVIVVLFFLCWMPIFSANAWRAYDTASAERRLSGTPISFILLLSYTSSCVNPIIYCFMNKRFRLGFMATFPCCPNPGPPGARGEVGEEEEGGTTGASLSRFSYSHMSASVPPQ

[3] = target: Rho-associated protein kinase 1 (Homo sapiens, UniProt Q13464); experiment: as §1
[4] = target: 5-hydroxytryptamine receptor 1A (Homo sapiens, UniProt P08908); experiment: as §1
[5] = target: Voltage-gated inwardly rectifying potassium channel KCNH2 (Homo sapiens, UniProt Q12809); experiment: as §1
[6] = target: Muscarinic acetylcholine receptor M2 (Homo sapiens, UniProt P08172); experiment: as §1
[7] = target: Cannabinoid receptor 1 (Homo sapiens, UniProt P21554); experiment: as §1
[8] = target: Acetylcholinesterase (Homo sapiens, UniProt P22303); experiment: as §1
[9] = target: Insulin receptor (Homo sapiens, UniProt P06213); experiment: as §1
[10] = target: 5-hydroxytryptamine receptor 3A (Homo sapiens, UniProt P46098); experiment: as §1
[11] = target: Muscarinic acetylcholine receptor M1 (Homo sapiens, UniProt P11229); experiment: as §1
[12] = target: Kappa-type opioid receptor (Homo sapiens, UniProt P41145); experiment: as §1
Sequence of Kappa-type opioid receptor (P41145 whole entry): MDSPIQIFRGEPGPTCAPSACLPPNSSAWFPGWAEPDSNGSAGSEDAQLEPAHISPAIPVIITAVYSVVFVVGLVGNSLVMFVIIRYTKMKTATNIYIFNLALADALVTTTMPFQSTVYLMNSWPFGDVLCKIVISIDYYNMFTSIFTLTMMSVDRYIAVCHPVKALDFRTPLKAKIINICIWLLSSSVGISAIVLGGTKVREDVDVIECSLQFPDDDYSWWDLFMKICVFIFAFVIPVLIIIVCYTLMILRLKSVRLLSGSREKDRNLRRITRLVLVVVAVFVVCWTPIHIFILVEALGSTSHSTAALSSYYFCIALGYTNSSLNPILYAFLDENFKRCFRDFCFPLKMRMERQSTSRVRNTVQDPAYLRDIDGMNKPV

[13] = target: Adenosine receptor A2a (Homo sapiens, UniProt P29274); experiment: as §1
[14] = target: 5-hydroxytryptamine receptor 2A (Homo sapiens, UniProt P28223); experiment: as §1
Sequence of 5-hydroxytryptamine receptor 2A (P28223 whole entry): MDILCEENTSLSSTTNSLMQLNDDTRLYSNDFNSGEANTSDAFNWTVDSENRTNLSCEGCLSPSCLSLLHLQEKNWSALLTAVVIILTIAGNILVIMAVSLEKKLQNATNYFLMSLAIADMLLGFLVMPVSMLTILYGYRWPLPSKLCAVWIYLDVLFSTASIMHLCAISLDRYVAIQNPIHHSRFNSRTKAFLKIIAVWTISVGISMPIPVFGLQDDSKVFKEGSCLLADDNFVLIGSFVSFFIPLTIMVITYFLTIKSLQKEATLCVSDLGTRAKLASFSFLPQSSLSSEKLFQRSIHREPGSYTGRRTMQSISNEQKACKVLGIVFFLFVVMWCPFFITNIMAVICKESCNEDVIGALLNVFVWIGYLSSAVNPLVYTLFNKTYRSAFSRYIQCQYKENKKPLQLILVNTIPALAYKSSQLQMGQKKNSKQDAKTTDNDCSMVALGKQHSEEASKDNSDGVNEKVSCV

[15] = target: Prostaglandin G/H synthase 2 (Homo sapiens, UniProt P35354); experiment: as §1
[16] = target: Amine oxidase [flavin-containing] A (Rattus norvegicus, UniProt P21396); experiment: as §1
[17] = target: Tyrosine-protein kinase Lck (Homo sapiens, UniProt P06239); experiment: as §1
[18] = target: Beta-1 adrenergic receptor (Homo sapiens, UniProt P08588); experiment: as §1
[19] = target: Alpha-2A adrenergic receptor (Homo sapiens, UniProt P08913); experiment: as §1
[20] = target: D(1A) dopamine receptor (Homo sapiens, UniProt P21728); experiment: as §1
[21] = target: Vasopressin V1a receptor (Homo sapiens, UniProt P37288); experiment: as §1
[22] = target: Alpha-1A adrenergic receptor (Homo sapiens, UniProt P35348); experiment: as §1
Sequence of Alpha-1A adrenergic receptor (P35348 whole entry): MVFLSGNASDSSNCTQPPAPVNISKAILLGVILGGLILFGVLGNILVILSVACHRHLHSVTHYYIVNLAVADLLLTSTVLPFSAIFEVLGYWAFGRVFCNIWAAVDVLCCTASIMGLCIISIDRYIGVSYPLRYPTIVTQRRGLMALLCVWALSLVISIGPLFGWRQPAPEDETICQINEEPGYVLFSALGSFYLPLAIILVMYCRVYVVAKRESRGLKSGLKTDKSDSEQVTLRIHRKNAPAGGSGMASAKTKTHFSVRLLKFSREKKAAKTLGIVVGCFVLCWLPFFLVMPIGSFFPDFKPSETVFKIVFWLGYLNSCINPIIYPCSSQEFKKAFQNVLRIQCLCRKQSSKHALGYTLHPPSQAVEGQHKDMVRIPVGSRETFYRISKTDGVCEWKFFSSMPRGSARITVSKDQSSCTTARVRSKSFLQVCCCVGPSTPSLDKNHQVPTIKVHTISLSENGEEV

[23] = target: Delta-type opioid receptor (Homo sapiens, UniProt P41143); experiment: as §1
[24] = target: Muscarinic acetylcholine receptor M3 (Homo sapiens, UniProt P20309); experiment: as §1
Sequence of Muscarinic acetylcholine receptor M3 (P20309 whole entry): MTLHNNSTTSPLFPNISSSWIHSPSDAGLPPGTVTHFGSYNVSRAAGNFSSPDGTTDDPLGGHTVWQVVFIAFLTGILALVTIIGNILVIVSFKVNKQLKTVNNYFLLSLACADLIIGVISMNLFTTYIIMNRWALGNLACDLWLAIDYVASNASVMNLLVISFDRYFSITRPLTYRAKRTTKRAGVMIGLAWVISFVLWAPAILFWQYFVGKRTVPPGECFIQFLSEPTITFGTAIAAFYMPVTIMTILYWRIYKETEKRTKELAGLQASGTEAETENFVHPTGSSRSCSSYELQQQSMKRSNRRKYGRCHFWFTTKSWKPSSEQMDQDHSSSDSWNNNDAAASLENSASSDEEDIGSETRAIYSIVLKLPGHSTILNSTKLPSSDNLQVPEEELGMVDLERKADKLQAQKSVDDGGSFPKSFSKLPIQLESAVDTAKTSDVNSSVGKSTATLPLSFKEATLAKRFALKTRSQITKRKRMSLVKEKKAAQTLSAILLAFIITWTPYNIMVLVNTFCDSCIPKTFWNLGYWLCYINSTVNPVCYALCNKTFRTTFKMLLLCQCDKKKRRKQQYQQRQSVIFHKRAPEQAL

[25] = target: Histamine H1 receptor (Homo sapiens, UniProt P35367); experiment: as §1
[26] = target: Sodium-dependent dopamine transporter (Homo sapiens, UniProt Q01959); experiment: as §1
[27] = target: 5-hydroxytryptamine receptor 2B (Homo sapiens, UniProt P41595); experiment: as §1
Sequence of 5-hydroxytryptamine receptor 2B (P41595 whole entry): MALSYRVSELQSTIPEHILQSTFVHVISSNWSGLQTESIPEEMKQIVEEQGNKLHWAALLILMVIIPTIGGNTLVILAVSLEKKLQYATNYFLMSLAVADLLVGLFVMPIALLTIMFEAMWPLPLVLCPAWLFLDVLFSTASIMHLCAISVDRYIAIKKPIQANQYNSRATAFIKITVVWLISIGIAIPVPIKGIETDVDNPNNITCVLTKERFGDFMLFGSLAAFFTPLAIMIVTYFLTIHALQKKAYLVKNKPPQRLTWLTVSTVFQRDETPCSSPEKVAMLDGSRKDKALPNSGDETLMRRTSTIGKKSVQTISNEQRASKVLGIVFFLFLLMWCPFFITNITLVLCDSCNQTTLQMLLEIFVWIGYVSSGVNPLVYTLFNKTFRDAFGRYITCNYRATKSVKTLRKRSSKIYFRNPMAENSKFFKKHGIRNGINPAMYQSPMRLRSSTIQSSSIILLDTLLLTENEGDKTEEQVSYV

[28] = target: Histamine H2 receptor (Homo sapiens, UniProt P25021); experiment: as §1
[29] = target: D(2) dopamine receptor (Homo sapiens, UniProt P14416); experiment: as §1
Sequence of D(2) dopamine receptor (P14416 whole entry): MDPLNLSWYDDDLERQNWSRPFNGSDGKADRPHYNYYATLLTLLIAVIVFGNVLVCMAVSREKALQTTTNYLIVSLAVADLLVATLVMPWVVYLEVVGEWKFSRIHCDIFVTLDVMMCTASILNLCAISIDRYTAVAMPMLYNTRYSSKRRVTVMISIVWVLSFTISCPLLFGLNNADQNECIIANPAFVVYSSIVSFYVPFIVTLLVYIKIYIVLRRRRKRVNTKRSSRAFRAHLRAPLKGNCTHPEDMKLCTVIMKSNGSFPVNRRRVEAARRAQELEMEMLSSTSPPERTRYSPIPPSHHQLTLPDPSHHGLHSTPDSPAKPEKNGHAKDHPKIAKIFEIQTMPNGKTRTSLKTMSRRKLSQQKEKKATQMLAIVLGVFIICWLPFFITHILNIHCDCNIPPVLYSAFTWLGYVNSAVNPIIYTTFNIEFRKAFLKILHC

[30] = target: Mu-type opioid receptor (Homo sapiens, UniProt P35372); experiment: as §1
[31] = target: 5-hydroxytryptamine receptor 1B (Homo sapiens, UniProt P28222); experiment: as §1
[32] = target: Prostaglandin G/H synthase 1 (Homo sapiens, UniProt P23219); experiment: as §1
[33] = target: Glucocorticoid receptor (Homo sapiens, UniProt P04150); experiment: as §1
[34] = target: 3',5'-cyclic-AMP phosphodiesterase 4D (Homo sapiens, UniProt Q08499); experiment: as §1
[35] = target: Sodium-dependent noradrenaline transporter (Homo sapiens, UniProt P23975); experiment: as §1
[36] = target: Androgen receptor (Homo sapiens, UniProt P10275); experiment: as §1
Sequence of Androgen receptor (P10275 whole entry): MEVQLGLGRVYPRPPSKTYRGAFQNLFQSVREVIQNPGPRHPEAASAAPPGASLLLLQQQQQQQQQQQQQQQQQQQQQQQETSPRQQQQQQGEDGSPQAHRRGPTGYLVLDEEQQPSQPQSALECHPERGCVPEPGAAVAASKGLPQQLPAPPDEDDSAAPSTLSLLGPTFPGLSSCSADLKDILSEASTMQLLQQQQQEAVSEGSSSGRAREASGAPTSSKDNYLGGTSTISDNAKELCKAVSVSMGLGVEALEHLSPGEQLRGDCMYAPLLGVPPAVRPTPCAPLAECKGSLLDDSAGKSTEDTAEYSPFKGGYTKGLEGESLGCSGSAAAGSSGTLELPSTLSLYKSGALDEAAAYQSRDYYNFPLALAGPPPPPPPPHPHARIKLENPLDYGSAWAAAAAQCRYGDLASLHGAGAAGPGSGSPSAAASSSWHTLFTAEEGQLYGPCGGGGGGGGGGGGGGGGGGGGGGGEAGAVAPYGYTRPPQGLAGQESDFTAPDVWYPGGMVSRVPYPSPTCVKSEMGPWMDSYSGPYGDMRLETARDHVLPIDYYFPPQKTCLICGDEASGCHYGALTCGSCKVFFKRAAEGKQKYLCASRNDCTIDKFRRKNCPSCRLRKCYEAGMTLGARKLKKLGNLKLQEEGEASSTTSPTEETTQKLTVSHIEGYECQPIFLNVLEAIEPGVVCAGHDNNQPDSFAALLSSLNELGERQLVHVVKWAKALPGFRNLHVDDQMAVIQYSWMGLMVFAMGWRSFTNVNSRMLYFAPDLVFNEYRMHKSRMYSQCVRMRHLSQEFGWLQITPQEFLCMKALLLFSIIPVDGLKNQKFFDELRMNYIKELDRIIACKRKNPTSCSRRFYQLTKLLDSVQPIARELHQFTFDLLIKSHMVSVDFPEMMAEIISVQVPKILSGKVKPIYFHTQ

[37] = target: Sodium channel protein type 5 subunit alpha (Homo sapiens, UniProt Q14524); experiment: as §1
[38] = target: Endothelin-1 receptor (Homo sapiens, UniProt P25101); experiment: as §1
Sequence of Endothelin-1 receptor (P25101 whole entry): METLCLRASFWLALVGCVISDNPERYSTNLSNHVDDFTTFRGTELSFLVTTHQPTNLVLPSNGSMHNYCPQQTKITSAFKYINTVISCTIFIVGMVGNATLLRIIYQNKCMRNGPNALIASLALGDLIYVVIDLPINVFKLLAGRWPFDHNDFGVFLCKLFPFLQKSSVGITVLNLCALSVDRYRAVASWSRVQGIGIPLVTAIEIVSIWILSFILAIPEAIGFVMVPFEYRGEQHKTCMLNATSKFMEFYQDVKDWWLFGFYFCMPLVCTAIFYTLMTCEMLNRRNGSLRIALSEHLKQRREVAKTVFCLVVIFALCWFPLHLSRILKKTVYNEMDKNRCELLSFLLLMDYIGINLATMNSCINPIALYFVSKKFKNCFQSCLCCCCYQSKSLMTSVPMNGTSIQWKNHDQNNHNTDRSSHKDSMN

[39] = target: Vascular endothelial growth factor receptor 2 (Homo sapiens, UniProt P35968); experiment: as §1
[40] = target: Cannabinoid receptor 2 (Homo sapiens, UniProt P34972); experiment: as §1
Sequence of Cannabinoid receptor 2 (P34972 whole entry): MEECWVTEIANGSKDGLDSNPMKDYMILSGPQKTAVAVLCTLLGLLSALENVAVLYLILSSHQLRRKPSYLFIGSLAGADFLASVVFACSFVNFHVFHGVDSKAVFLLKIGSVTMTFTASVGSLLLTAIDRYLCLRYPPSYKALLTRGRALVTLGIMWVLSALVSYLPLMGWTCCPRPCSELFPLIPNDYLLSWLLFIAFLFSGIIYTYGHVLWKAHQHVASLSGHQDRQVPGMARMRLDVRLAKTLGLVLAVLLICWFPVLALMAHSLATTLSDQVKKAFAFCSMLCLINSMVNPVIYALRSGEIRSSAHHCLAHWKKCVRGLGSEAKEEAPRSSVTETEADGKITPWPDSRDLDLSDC

[41] = target: cGMP-inhibited 3',5'-cyclic phosphodiesterase 3A (Homo sapiens, UniProt Q14432); experiment: as §1
[42] = target: Beta-2 adrenergic receptor (Homo sapiens, UniProt P07550); experiment: as §1
[43] = target: Glutamate NMDA receptor; GRIN1/GRIN2B (Homo sapiens, UniProt Q05586+Q13224); experiment: as §1; type: protein-complex assay, Rattus norvegicus; conditions: target entry is the homologue from another species
[44] = target: Voltage-gated potassium channel, IKs; KCNQ1(Kv7.1)/KCNE1(MinK) (Homo sapiens, UniProt P15382+P51787); experiment: as §1; type: protein-complex assay
[45] = target: Neuronal acetylcholine receptor; alpha4/beta2 (Homo sapiens, UniProt P17787+P43681); experiment: as §1; type: protein-complex assay
[46] = target: Voltage-dependent L-type calcium channel subunit alpha-1C (Homo sapiens, UniProt Q13936); experiment: as §1; set-up: species or system Rattus norvegicus; conditions: target entry is the homologue from another species
[47] = as §1; set-up: species or system Rattus norvegicus
[48] = target: Ceramide glucosyltransferase (Mus musculus, UniProt O88693); experiment: Mouse GCS enzymatic assay; type: functional
[49] = target: T1, Ceramide glucosyltransferase; experiment: Human GCS enzymatic assay; type: functional

With `CC(C)(O)c1ccc(N2Cc3c(ccnc3-c3ccc(F)cc3OCC(F)(F)F)C2=O)cc1` the EC50 [1] was 0.0076 µM (active), the EC50 [2] was greater than 10 µM and the IC50 [2] was greater than 10 µM. It also gave an IC50 [3] greater than 10 µM, an EC50 [4] greater than 10 µM and an IC50 [4] greater than 10 µM. It also gave an IC50 [5] greater than 10 µM, an EC50 [6] greater than 10 µM and an IC50 [6] greater than 10 µM. For the same molecule, the EC50 [7] was greater than 10 µM, the IC50 [7] was greater than 10 µM and the IC50 [8] was greater than 10 µM. For the same molecule, the IC50 [9] was greater than 10 µM, the EC50 [10] was greater than 10 µM and the IC50 [10] was greater than 10 µM. For the same molecule, the EC50 [11] was greater than 10 µM, the IC50 [11] was greater than 10 µM and the EC50 [12] was greater than 10 µM. For the same molecule, the IC50 [12] was greater than 10 µM, the EC50 [13] was greater than 10 µM and the IC50 [13] was greater than 10 µM. For the same molecule, the EC50 [14] was greater than 10 µM, the IC50 [14] was greater than 10 µM and the IC50 [15] was greater than 10 µM. For the same molecule, the IC50 [16] was greater than 10 µM, the IC50 [17] was greater than 10 µM and the EC50 [18] was greater than 10 µM. It also gave an IC50 [18] greater than 10 µM, an EC50 [19] greater than 10 µM and an IC50 [19] greater than 10 µM. For the same molecule, the EC50 [20] was greater than 10 µM, the IC50 [20] was greater than 10 µM and the EC50 [21] was greater than 10 µM. It also gave an IC50 [21] greater than 10 µM, an EC50 [22] greater than 10 µM and an IC50 [22] greater than 10 µM. For the same molecule, the EC50 [23] was greater than 10 µM, the IC50 [23] was greater than 10 µM and the EC50 [24] was greater than 10 µM. For the same molecule, the IC50 [24] was greater than 10 µM, the EC50 [25] was greater than 10 µM and the IC50 [25] was greater than 10 µM. The IC50 [26] was greater than 10 µM, the EC50 [27] was greater than 10 µM and the IC50 [27] was greater than 10 µM. For the same molecule, the EC50 [28] was greater than 10 µM, the IC50 [28] was greater than 10 µM and the EC50 [29] was greater than 10 µM. It also gave an IC50 [29] greater than 10 µM, an EC50 [30] greater than 10 µM and an IC50 [30] greater than 10 µM. The EC50 [31] was 2.8 µM, the IC50 [31] was greater than 10 µM and the IC50 [32] was greater than 10 µM. It also gave an EC50 [33] greater than 10 µM, an IC50 [33] greater than 10 µM and an IC50 [34] greater than 10 µM. It also gave an IC50 [35] greater than 10 µM, an EC50 [36] greater than 10 µM and an IC50 [36] greater than 10 µM. It also gave an IC50 [37] greater than 10 µM, an EC50 [38] greater than 10 µM and an IC50 [38] greater than 10 µM. The IC50 [39] was greater than 10 µM, the EC50 [40] was greater than 10 µM and the IC50 [40] was greater than 10 µM. The IC50 [41] was greater than 10 µM, the EC50 [42] was greater than 10 µM and the IC50 [42] was greater than 10 µM. The EC50 [43] was greater than 10 µM, the IC50 [43] was greater than 10 µM and the EC50 [44] was greater than 10 µM. It also gave an IC50 [44] greater than 10 µM, an EC50 [45] greater than 10 µM and an IC50 [45] of 6.5 µM. It also gave an IC50 [46] greater than 10 µM, an EC50 [47] greater than 10 µM and an IC50 [47] greater than 10 µM.
For `COc1cccc(-c2nccc3c2CN(c2ccccc2)C3=O)c1`, the EC50 [1] was > 10 µM (not active), the IC50 [48] was > 100 µM (not active) and the IC50 [49] was > 100 µM (not active).
